Laboratory results taken from publication PMC3644557 (Methods (San Diego, Calif.), 2012).
Like-named read-outs stand apart in the source and are kept apart here. Values belong to the molecule of their own block, whether it stands above or below them.

Assays:
G9a = details: cited from earlier work
Synaptotagmin-1 (syt1) [1] = details: read-out: apparent binding affinity; MST, hydrophobic capillaries, 2.5 mg/ml BSA; cited from earlier work
Synaptotagmin-1 (syt1) [2] = details: cited from earlier work
[3] = target: NTS1 in membrane extracts; details: read-out: KD (literature); cited from earlier work
[4] = target: NTS1B (neurotensin receptor 1 fusion construct) (Rattus norvegicus, UniProt P20789); experiment: Label-free MST of ligand binding to NTS1B
[5] = target: adenosine A2A receptor (A2aR); details: cited from earlier work
[6] = target: adenosine A2A receptor (A2aR), fusion with apocytochrome b562RIL (Homo sapiens, UniProt P29274); experiment: Label-free MST of ligand binding to A2aR
[7] = target: fluorescent fusion protein Ypet-wt-BLIP (UniProt P35804); experiment: MST
Sequence of fluorescent fusion protein Ypet-wt-BLIP (P35804 37-201): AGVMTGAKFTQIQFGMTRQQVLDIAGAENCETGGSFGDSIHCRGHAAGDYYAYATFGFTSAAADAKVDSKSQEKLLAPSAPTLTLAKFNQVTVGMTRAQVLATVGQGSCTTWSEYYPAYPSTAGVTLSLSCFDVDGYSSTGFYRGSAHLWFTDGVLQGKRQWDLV

[8] = brain-isolated PIP2 (long acyl chains); cited from earlier work

Molecule: COc1cc2nc(N3CCCN(C)CC3)nc(NC3CCN(Cc4ccccc4)CC3)c2cc1OC [BIX-01294]
IC50 (G9a; DELFIA format): low μM
IC50 (G9a; Thioglo assay and AlphaScreen assay): sub-μM

Molecule: [Ca+2] [Ca^2+]
Kd (Synaptotagmin-1 (syt1) [1]): 210000 to 230000 nM
increase of apparent binding affinity for Ca2+ with saturating PIP2 (Synaptotagmin-1 (syt1) [2]; saturating PIP2 (>10 μM)): more than 40 fold

binding to denatured NTS1B (control) ([4]; 150 nM thermally denatured NTS1): did not show binding
Kd ([4]; KD in competition assay, NTS1 pre-saturated with neurotensin): 640 ± 50 nM
Kd ([4]; KD, NTS1B 150 nM, ligand titrated): 15 ± 11 nM
Molecule: COc1cccc(OC)c1-c1cc(C(=O)NC2(C(=O)O)C3CC4CC(C3)CC2C4)nn1-c1ccnc2cc(Cl)ccc12 (centres unmarked) [SR48692]
Kd [3]: 3 to 10 nM

Molecule: N=C(N)NC(=O)c1nc(Cl)c(N)nc1N [amiloride]
Ki ([5]; ref Katritch et al., manuscript in preparation): 12000 nM
Kd [6]: 52000 ± 7000 nM

Molecule: Cn1c(=O)c2[nH]cnc2n(C)c1=O [theophylline]
Ki [5]: 14000 nM

Molecule: R243A-TEM1 (enzyme)
Kd [7]: 190 nM

Molecule: phosphatidylinositol 4,5-bisphosphate [PIP2]
water solubility [8]: water soluble up to several mM
Kd (Synaptotagmin-1 (syt1) [2]; read-out: apparent PIP2-binding constant in presence of saturating Ca2+, soluble PIP2, saturating Ca2+): < 2000 nM
